Measurements from patent publication US20250250230A1, “HETEROCYCLIC COMPOUND” (TAKEDA PHARMACEUTICAL COMPANY LIMITED, priority 2022, published 2025).

target: T1, human orexin type 2 receptor (Homo sapiens, UniProt O43614); assay: Measurement of orexin type 2 receptor agonist activity (calcium fluorescence, Fluo-4 AM, FDSS); assay type: cell-based; conditions: test compound 3 μM; CHO cells expressing human OX2 receptor; DMSO = 0%, orexin A (human) = 100%
T1 construct: expressed in transfected cells
T1 sequence (O43614 1-444): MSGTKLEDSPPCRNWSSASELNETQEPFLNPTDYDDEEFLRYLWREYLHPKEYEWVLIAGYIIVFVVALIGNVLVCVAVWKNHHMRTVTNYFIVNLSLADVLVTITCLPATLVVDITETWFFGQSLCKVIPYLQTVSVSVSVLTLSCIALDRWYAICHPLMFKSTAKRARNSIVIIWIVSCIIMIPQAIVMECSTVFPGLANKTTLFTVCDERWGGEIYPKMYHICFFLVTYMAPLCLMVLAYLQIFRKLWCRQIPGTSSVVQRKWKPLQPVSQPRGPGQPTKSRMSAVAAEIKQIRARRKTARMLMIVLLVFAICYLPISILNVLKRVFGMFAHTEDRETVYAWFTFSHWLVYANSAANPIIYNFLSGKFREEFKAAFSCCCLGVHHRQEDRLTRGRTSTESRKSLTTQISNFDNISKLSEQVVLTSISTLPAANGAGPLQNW
Procedure, shortened: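 CHO-K1 cells stably expressing human OX2R were loaded with Fluo-4 AM (30 min 37 °C, 30 min RT) in HEPES-buffered HBSS with 0.1% BSA and probenecid. Calcium fluorescence was followed on FDSS for 2 min after compound addition; activity normalised to DMSO (0%) and 10 nM orexin A (100%).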

In order of rising “OX2R agonist activity (3 μM, %)” value:
1. CS(=O)(=O)N[C@H]1CCCN(C(=O)C2CC2(F)c2ccccc2-c2c(F)cccc2F)C1 (single isomer, unassigned) [Example 306, N-{(3S)-1-[(1S,2S)-2-(2′,6′-difluoro [1,1′-biphenyl]-2-yl)-2-fluorocyclopropane-1-carbonyl]piperidin-3-yl}methanesulfonamide, or N-{(3S)-1-[(1R,2R)-2-(2′,6′-difluoro[1,1′-biphenyl]-2-yl)-2-fluorocyclopropane-1-carbonyl]piperidin-3-yl}methanesulfonamide]  93%
2. CS(=O)(=O)N[C@H]1CCCN(C(=O)[C@@H]2C[C@H]2c2ccccc2-c2c(F)cccc2F)CC1 [Example 25, N-{(4S)-1-[(1R,2R)-2-(2′,6′-difluoro[1,1′-biphenyl]-2-yl)cyclopropane-1-carbonyl]azepan-4-yl}methanesulfonamide]  93%
3. CN(C)S(=O)(=O)NCC1CN(C(=O)[C@@H]2C[C@H]2c2ccccc2-c2c(F)cccc2F)CCO1 (stereo in doubt) [Example 284, N′-({(2R)-4-[(1R,2R)-2-(2′,6′-difluoro[1,1′-biphenyl]-2-yl)cyclopropane-1-carbonyl]morpholin-2-yl}methyl)-N,N-dimethylsulfuric diamide]  94%
4. CS(=O)(=O)NC1CCN(C(=O)C2CC2c2c(F)cccc2-c2c(F)cccc2F)C1 (stereo not drawn) [Example 210, N-{1-[2-(2′,3,6′-trifluoro[1,1′-biphenyl]-2-yl)cyclopropane-1-carbonyl]pyrrolidin-3-yl}methanesulfonamide optical isomer]  94%
5. COC[C@@H]1CN(C(=O)[C@@H]2C[C@@]2(F)c2ccccc2-c2c(F)cccc2F)C1CNS(C)(=O)=O (stereo in doubt) [Example 399, N-{[(2R,3R)-1-[(1S,2S)-2-(2′,6′-difluoro[1,1′-biphenyl]-2-yl)-2-fluorocyclopropane-1-carbonyl]-3-(methoxymethyl)azetidin-2-yl]methyl}methanesulfonamide]  95%
6. CS(=O)(=O)N[C@H]1CCCN(C(=O)[C@@H]2C[C@H]2c2ccccc2-c2c(F)cccc2F)C1 [Example 24, N-{(3S)-1-[(1R,2R)-2-(2′,6′-difluoro [1,1′-biphenyl]-2-yl)cyclopropane-1-carbonyl]piperidin-3-yl}methanesulfonamide]  95%
7. CS(=O)(=O)NC1CN(C(=O)C2CC2c2ccccc2-c2c(F)cccc2F)CC1(F)F (stereo not drawn) [Example 180, N-{1-[2-(2′,6′-difluoro[1,1′-biphenyl]-2-yl)cyclopropane-1-carbonyl]-4,4-difluoropyrrolidin-3-yl}methanesulfonamide optical isomer]  95%
8. CS(=O)(=O)N[C@@H]1CN(C(=O)C2CC2c2ccccc2-c2c(F)cccc2F)CCC1(F)F (stereo partly drawn) [Example 215, N-{(3R)-1-[(1R,2R)-2-(2′,6′-difluoro [1,1′-biphenyl]-2-yl)cyclopropane-1-carbonyl]-4,4-difluoropiperidin-3-yl}methanesulfonamide, or N-{(3R)-1-[(1S,2S)-2-(2′,6′-difluoro[1,1′-biphenyl]-2-yl)cyclopropane-1-carbonyl]-4,4-difluoropiperidin-3-yl}methanesulfonamide]  98%
9. CS(=O)(=O)NC1CCC2CN(C(=O)C3CC3c3ccccc3-c3c(F)cccc3F)CC21 (stereo not drawn) [Example 238, N-2-[(2-(2′,6′-difluoro[1,1′-biphenyl]-2-yl)cyclopropane-1-carbonyl]octahydrocyclopenta[c]pyrrol-4-yl}methanesulfonamide Optical Isomer]  98%
10. CS(=O)(=O)N[C@@H]1CN(C(=O)C2CC2c2ccccc2-c2c(F)cccc2F)CC[C@@H]1F (stereo partly drawn) [Example 216, N-{(3R,4S)-1-[(1R,2R)-2-(2′,6′-difluoro[1,1′-biphenyl]-2-yl)cyclopropane-1-carbonyl]-4-fluoropiperidin-3-yl}methanesulfonamide, or N-{(3R,4S)-1-[(1S,2S)-2-(2′,6′-difluoro[1,1′-biphenyl]-2-yl)cyclopropane-1-carbonyl]-4-fluoropiperidin-3-yl}methanesulfonamide]  99%
11. CCS(=O)(=O)NC[C@@H]1CCN1C(=O)[C@@H]1C[C@@]1(F)c1ccccc1-c1c(F)cccc1F (single isomer, unassigned) [Example 351, N-({(2R)-1-[(1S,2S)-2-(2′,6′-difluoro[1,1′-biphenyl]-2-yl)-2-fluorocyclopropane-1-carbonyl]azetidin-2-yl}methyl)ethanesulfonamide, or N-({(2S)-1-[(1S,2S)-2-(2′,6′-difluoro[1,1′-biphenyl]-2-yl)-2-fluorocyclopropane-1-carbonyl]azetidin-2-yl}methyl)ethanesulfonamide]  101%
12. CS(=O)(=O)N[C@H]1CCCN(C(=O)C2CC2c2c(F)cccc2-c2c(F)cccc2F)C1 (stereo partly drawn) [Example 196, N-{(3S)-1-[(1R,2R)-2-(2′,3,6′-trifluoro[1,1′-biphenyl]-2-yl)cyclopropane-1-carbonyl]piperidin-3-yl}methanesulfonamide, or N-{(3S)-1-[(1S,2S)-2-(2′,3,6′-trifluoro[1,1′-biphenyl]-2-yl)cyclopropane-1-carbonyl]piperidin-3-yl}methanesulfonamide]  101%
13. CS(=O)(=O)N[C@H]1CCCN(C(=O)C2CC2c2ccc(F)cc2-c2c(F)cccc2F)C1 (stereo partly drawn) [Example 201, N-{(3S)-1-[(1R,2R)-2-(2′,5,6′-trifluoro[1,1′-biphenyl]-2-yl)cyclopropane-1-carbonyl]piperidin-3-yl}methanesulfonamide, or N-{(3S)-1-[(1S,2S)-2-(2′,5,6′-trifluoro[1,1′-biphenyl]-2-yl)cyclopropane-1-carbonyl]piperidin-3-yl}methanesulfonamide]  101%
14. CS(=O)(=O)N[C@H]1C[C@@H](F)CN(C(=O)[C@@H]2C[C@H]2c2ccccc2-c2c(F)cccc2F)C1 [Example 232, N-{(3S,5R)-1-[(1R,2R)-2-(2′,6′-difluoro[1,1′-biphenyl]-2-yl)cyclopropane-1-carbonyl]-5-fluoropiperidin-3-yl}methanesulfonamide]  103%
15. CS(=O)(=O)NC1CN(C(=O)C2CC2c2c(F)cccc2-c2c(F)cccc2F)CC1(F)F (stereo not drawn) [Example 226, N-{4,4-difluoro-1-[2-(2′,3,6′-trifluoro[1,1′-biphenyl]-2-yl)cyclopropane-1-carbonyl]pyrrolidin-3-yl}methanesulfonamide optical isomer]  104%
16. CS(=O)(=O)N[C@H]1CCN(C(=O)[C@@H]2C[C@H]2c2ccccc2-c2c(F)cccc2F)C1 [Example 23, N-{(3S)-1-[(1R,2R)-2-(2′,6′-difluoro[1,1′-biphenyl]-2-yl)cyclopropane-1-carbonyl]pyrrolidin-3-yl}methanesulfonamide]  105%
17. CS(=O)(=O)NC1CCCN(C(=O)C2CC2c2c(F)cccc2-c2c(F)cccc2F)C1 (stereo not drawn) [Example 211, N-{1-[2-(2′-3,6′-trifluoro[1,1′-biphenyl]-2-yl)cyclopropane-1-carbonyl]piperidin-3-yl}methanesulfonamide optical isomer]  105%
